In ChEMBL document CHEMBL1152706, “Stieglitz rearrangement of N,N-dichloro-beta,beta-disubstituted taurines under mild aqueous conditions” (Bioorg Med Chem Lett, 2009):

What was measured:
Format in all cases: physicochemical
Settings in all cases: buffer
[1] = Chemical stability assessed as half life at pH 4 at 40 degC
[2] = Chemical stability assessed as half life at pH 7 at 40 degC
[3] = Chemical stability assessed as half life at pH 4 at 25 degC

Row | Structure (SMILES) | half-life [1] [h] | half-life [3] [h] | further results
1 | O=S(=O)([O-])CCCCCN(Cl)Cl.[Na+] | 120 | – | half-life [2]: 24 h
2 | CC1(C)CC(C)(C)CC(CS(=O)(=O)[O-])(N(Cl)Cl)C1.[Na+] | 24 | – | –
3 | CC(C)(CS(=O)(=O)[O-])N(Cl)Cl.[Na+] | – | – | t1/2 [1]: > 2 yr
4 | O=S(=O)([O-])CCCCCCCN(Cl)Cl.[Na+] | 48 | – | –
5 | CCCC(CCC)(CS(=O)(=O)[O-])N(Cl)Cl.[Na+] | 12 | – | half-life [2]: 48 h
6 | O=S(=O)([O-])CCCCCCN(Cl)Cl.[Na+] | 168 | – | –
7 | O=S(=O)([O-])CCCCN(Cl)Cl.[Na+] | – | 6 | –
8 | O=S(=O)([O-])CCOCCN(Cl)Cl.[Na+] | – | < 24 | –

Further lines, with some results ahead:

Row | half-life [1] [h] | half-life [3] [h] | Structure (SMILES) | further results
9 | – | 36 | COCC(C)(CS(=O)(=O)[O-])N(Cl)Cl.[Na+] (centres undefined) | –
10 | – | < 0.167 | CC(C)C(CS(=O)(=O)[O-])(C(C)C)N(Cl)Cl.[Na+] | –
11 | 24 | – | CCC(CC)(CS(=O)(=O)[O-])N(Cl)Cl.[Na+] | half-life [2]: 12 h
